# Measurements taken from patent US9006442B2, “Cannabinoid receptor modulators” (Lupin Limited, priority 2011, dated 2015).
# Target: hCB2 (Homo sapiens, UniProt P34972)
# Experiment: cAMP determination in functional hCB2-CHO stable cells (HTRF)
# Type: cell-based
# Conditions: not given
# Procedure: In-Vitro Assay Method for Determination of cAMP in Functional hCB2—CHO Stable Cells:
# Recombinant CHO-hCB2 cells (procured from Perkin Elmer Inc. USA) were propagated and maintained in Ham's F-12 complete medium containing 10% heat inactivated FBS (Sigma.UK) and 1× penstrep. For assay, 0.1×10^6 to 1.0×10^6 CHO-hCB2 cells were seeded in T-25 flask and grown to mid-log phase in culture media without antibiotics for 2-3 days. […] The test is performed in 96^1/2 area black well plates. For agonist testing, 20 μl cells/well were mixed with 20 μl of sample and 10 μl of forskolin (with final concentration of 10 μM) and incubated for 20 to 40 min at room temperature in incubator. The plate was then processed for the cAMP determination using cAMP Femto-2 HTRF kit (Cisbio, Germany) as per the manual.
# The concentration of compound required to stimulate a half-maximal response (EC50) was determined using the GraphPad Prism software (version 5).
# hCB2, sequence (P34972 whole entry): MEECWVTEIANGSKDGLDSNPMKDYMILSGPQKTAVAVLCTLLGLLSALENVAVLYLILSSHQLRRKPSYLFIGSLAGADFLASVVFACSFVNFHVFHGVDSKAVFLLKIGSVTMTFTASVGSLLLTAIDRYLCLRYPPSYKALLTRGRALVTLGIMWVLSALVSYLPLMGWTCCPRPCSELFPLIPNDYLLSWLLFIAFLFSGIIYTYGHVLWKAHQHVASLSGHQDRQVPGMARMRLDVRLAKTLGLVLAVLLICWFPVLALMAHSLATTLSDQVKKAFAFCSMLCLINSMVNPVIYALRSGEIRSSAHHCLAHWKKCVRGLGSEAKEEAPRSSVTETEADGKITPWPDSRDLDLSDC
row,Structure (SMILES),EC50 [nM]
1,"Cc1cccc2c(Nc3cccc(F)c3F)ccc(C(=O)N3CC4CC(C3)O4)c12 [Example-172, 6-Oxa-3-azabicyclo[3.1.1]heptan-3-yl(4-((2,3-difluorophenyl)amino)-8-methylnaphthalen-1-yl)methanone]",< 10
2,"O=C(NCC1CCOCC1)c1ccc(Nc2cccc(Cl)c2)c2ccccc12 [Example-180, 4-((3-Chlorophenyl)amino)-N-((tetrahydro-2H-pyran-4-yl)methyl)-1-naphthamide]",10 to 1000
3,"O=C(c1ccc(Nc2ccc(Cl)cc2Cl)c2ccccc12)N1CCOCC1 [Example-197, (4-((2,4-Dichlorophenyl)amino)naphthalen-1-yl)(morpholino)methanone]",10 to 1000
4,"O=C(c1ccc(Nc2cccc(C(F)(F)F)c2)c2ccccc12)N1CCOCC1 [Example-201, Morpholino(4-((3-(trifluoromethyl)phenyl)amino)naphthalen-1-yl)methanone]",< 10
5,"CCN(CC)C(=O)c1cnc(Nc2cccc(C(F)(F)F)c2F)c2cccc(C)c12 [compound 277, N,N-Diethyl-1-((2-fluoro-3-(trifluoromethyl)phenyl)amino)-5-methyl isoquinolin-4-carboxamide]",< 10
6,"CCN(CC)C(=O)c1cnc(Nc2cccc(C(F)(F)F)c2C)c2cccc(C)c12 [compound 279, N,N-Diethyl-5-methyl-1-((2-methyl-3-(trifluoromethyl)phenyl)amino) isoquinolin-4-carboxamide]",< 10
7,"CCN(CC)C(=O)c1cnc(Nc2cccc(Cl)c2F)c2cccc(C)c12 [compound 282, 1-((3-Chloro-2-fluorophenyl)amino)-N,N-diethyl-5-methyl isoquinolin-4-carboxamide]",10 to 1000
8,"CCN(CC)C(=O)c1cnc(Nc2cccc(Cl)c2C)c2cccc(Cl)c12 [compound 322, 5-Chloro-1-((3-chloro-2-methylphenyl)amino)-N,N-diethyl isoquinolin-4-carboxamide]",< 10
9,"CCN(CC)C(=O)c1cnc(Nc2cccc(C(F)(F)F)c2C)c2cccc(Cl)c12 [compound 325, 5-Chloro-N-N-diethyl-1-((2-methyl-3-(trifluoromethyl)phenyl)amino) isoquinolin-4-carboxamide]",< 10
10,"Cc1c(Nc2ncc(C(=O)N(C)C)c3c(Cl)cccc23)cccc1C(F)(F)F [compound 329, 5-Chloro-N,N-dimethyl-1-((2-methyl-3-(trifluoromethyl)phenyl)amino)isoquinolin-4-carboxamide]",< 10
11,"CCN(C)C(=O)c1cnc(Nc2cccc(C(F)(F)F)c2C)c2cccc(Cl)c12 [compound 331, 5-Chloro-N-ethyl-N-methyl-1-((2-methyl-3-(trifluoromethyl)phenyl)amino)isoquinolin-4-carboxamide]",< 10
12,"Cc1c(Cl)cccc1Nc1ncc(C(=O)N(C)C)c2c(Cl)cccc12 [compound 332, 5-Chloro-1-((3-chloro-2-methylphenyl)amino)-N,N-dimethyl isoquinolin-4-carboxamide]",< 10
13,"CCN(C)C(=O)c1cnc(Nc2cccc(Cl)c2C)c2cccc(Cl)c12 [compound 357, 5-Chloro-1-((3-chloro-2-methylphenyl)amino)-N-ethyl-N-methyl isoquinolin-4-carboxamide]",< 10
14,"CCN(C)C(=O)c1cnc(Nc2cccc(Cl)c2Cl)c2cccc(Cl)c12 [compound 363, 5-Chloro-1-((2,3-dichlorophenyl)amino)-N-ethyl-N-methyl isoquinolin-4-carboxamide]",< 10

# Same assay, conditions: CHO-hCB2 cells, cAMP, forskolin 10 μM, agonist testing; read-out: EC50 Range
row,EC50 [nM],Structure (SMILES)
1,< 10,"Cc1c(F)cccc1Nc1ccc(C(=O)N2CC3CC3C2)c2c(C)cccc12 (centres unmarked) [Example-170, 3-Azabicyclo[3.1.0]hexan-3-yl(4-((3-fluoro-2-methylphenyl)amino)-8-methylnaphthalen-1-yl)methanone]"
2,10 to 1000,"O=C(c1ccc(Nc2cc(F)cc(F)c2)c2ccccc12)N1CCOCC1 [Example-187, (4-((3,5-Difluorophenyl)amino)naphthalen-1-yl)(morpholino)methanone]"
3,10 to 1000,"CC1COCC(C)N1C(=O)c1ccc(Nc2cc(F)cc(F)c2)c2ccccc12 (centres unmarked) [Example-190, (4-((3,5-Difluorophenyl)amino)naphthalen-1-yl)(3,5-dimethylmorpholino)methanone]"
4,10 to 1000,"CN(C)C(=O)c1ccc(Nc2cccc(F)c2C(F)(F)F)c2cccc(Cl)c12 [Example-469, 8-Chloro-4-((3-fluoro-2-(trifluoromethyl)phenyl)amino)-N,N-dimethyl-1-naphthamide]"
5,< 10,"CCN(CC)C(=O)c1cnc(Nc2cccc(C(=O)OC)c2C)c2cccc(Cl)c12 [compound 249, Methyl 2-methyl-3-((5-chloro-4-(diethylcarbamoyl)isoquinolin-1-yl)amino)benzoate]"
6,< 10,"CCN(C)C(=O)c1cnc(Nc2cccc(C(F)(F)F)c2F)c2cccc(C)c12 [compound 292, N-Ethyl-1-((2-fluoro-3-(trifluoromethyl)phenyl)amino)-N,5-dimethyl isoquinolin-4-carboxamide]"
7,< 10,"CN(C)C(=O)c1cnc(Nc2cccc(C(F)(F)F)c2Cl)c2cccc(Cl)c12 [compound 317, 5-Chloro-1-((2-chloro-3-(trifluoromethyl)phenyl)amino)-N,N-di methylisoquinolin-4-carboxamide]"
8,< 10,"CCN(CC)C(=O)c1cnc(Nc2cccc(C(F)(F)F)c2F)c2cccc(Cl)c12 [compound 328, 5-Chloro-N,N-diethyl-1-((2-fluoro-3-(trifluoromethyl)phenyl)amino) isoquinolin-4-carboxamide]"
9,< 10,"CN(C)C(=O)c1cnc(Nc2cccc(C(F)(F)F)c2F)c2cccc(Cl)c12 [compound 330, 5-Chloro-1-((2-fluoro-3-(trifluoromethyl)phenyl)amino)-N,N-dimethylisoquinolin-4-carboxamide]"
10,< 10,"CN(C)C(=O)c1cnc(Nc2cccc(F)c2C(F)(F)F)c2cccc(Cl)c12 [compound 333, 5-Chloro-1-((3-fluoro-2-(trifluoromethyl)phenyl)amino)-N,N-di methylisoquinolin-4-carboxamide]"
11,< 10,"CCN(C)C(=O)c1cnc(Nc2cccc(C(F)(F)F)c2F)c2cccc(Cl)c12 [compound 334, 5-Chloro-N-ethyl-1-((2-fluoro-3-(trifluoromethyl)phenyl)amino)-N-methylisoquinolin-4-carboxamide]"
12,< 10,"CCN(C)C(=O)c1cnc(Nc2cccc(F)c2C(F)(F)F)c2cccc(Cl)c12 [compound 335, 5-Chloro-N-ethyl-1-((3-fluoro-2-(trifluoromethyl)phenyl)amino)-N-methylisoquinolin-4-carboxamide]"
13,< 10,"CCN(C)C(=O)c1cnc(Nc2cccc(F)c2Cl)c2cccc(Cl)c12 [compound 336, 5-Chloro-1-((2-chloro-3-fluorophenyl)amino)-N-ethyl-N-methyl isoquinolin-4-carboxamide]"
14,10 to 1000,"CCN(C)C(=O)c1cnc(Nc2c(F)ccc(F)c2F)c2cccc(Cl)c12 [compound 355, 5-Chloro-N-ethyl-N-methyl-1-((2,3,6-trifluorophenyl)amino) isoquinolin-4-carboxamide]"
15,10 to 1000,"CC(C)N(C)C(=O)c1cnc(Nc2cccc(F)c2C(F)(F)F)c2cccc(Cl)c12 [compound 381, 5-Chloro-1-((3-fluoro-2-(trifluoromethyl)phenyl)amino)-N-isopropyl-N-methylisoquinolin-4-carboxamide]"
